Patent US20230265151A1, “GIP/GLP1 CO-AGONIST COMPOUNDS” (priority 2020, published 2023)
Read-outs that look alike come from different tables or passages of the source.

Key:
Assay type in all cases: cell-based
[1] = molecular target: hGLP-1R (Homo sapiens, UniProt P43220); assay: Functional cAMP formation (HTRF) in HEK-293 clonal cells expressing hGLP-1R, 0.1% bovine casein, without or with 1.0% human serum albumin; design: expressed in transfected cells; conditions: for EC50: geometric mean
Outline: (§1)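 Cells were stimulated with peptide for 30 min at 37° C, then intracellular cAMP was measured by competitive HTRF (665/620 nm ratio) and converted to nM using a cAMP standard curve. Relative EC50 and Emax came from four-parameter logistic fits of percent maximal response against peptide concentration.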

[2] = molecular target: T1, hGIPR (Homo sapiens, UniProt P48546); assay: Functional cAMP formation (HTRF) in HEK-293 clonal cells expressing hGIPR, 0.1% bovine casein, without or with 1.0% human serum albumin; conditions: for EC50: geometric mean, read-out: hGIPR EC50, nM (SEM, n)
T1 construct: expressed in transfected cells
T1 sequence (P48546 22-466): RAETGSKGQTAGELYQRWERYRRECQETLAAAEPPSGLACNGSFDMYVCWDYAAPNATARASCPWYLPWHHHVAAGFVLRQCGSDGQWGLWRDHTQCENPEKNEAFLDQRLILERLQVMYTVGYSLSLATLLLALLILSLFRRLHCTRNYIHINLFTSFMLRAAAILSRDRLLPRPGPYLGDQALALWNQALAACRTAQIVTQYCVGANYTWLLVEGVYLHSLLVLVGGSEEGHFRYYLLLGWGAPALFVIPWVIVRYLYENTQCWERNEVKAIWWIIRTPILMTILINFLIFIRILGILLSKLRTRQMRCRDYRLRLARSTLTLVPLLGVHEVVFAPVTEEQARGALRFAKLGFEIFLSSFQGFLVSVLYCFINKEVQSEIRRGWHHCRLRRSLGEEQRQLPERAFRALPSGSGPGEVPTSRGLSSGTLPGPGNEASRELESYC
Outline: as §1

[3] = molecular target: T2, hGCGR (Homo sapiens, UniProt P47871); assay: Functional cAMP formation (HTRF) in HEK-293 clonal cells expressing hGCGR, 0.1% bovine casein, without or with 1.0% human serum albumin; conditions: geometric mean
T2 construct: expressed in transfected cells
Outline: as §1

[4] = 0.1% bovine casein and 1.0% human serum albumin, 37° C., read-out: hGLP-1R EC50, nM (SEM, n)
[5] = cAMP, incubated at 37° C., 0.1% bovine casein (no human serum albumin), read-out: hGLP-1R EC50, nM (SEM, n)
[6] = HEK293, 0.1% bovine casein and 1.0% human serum albumin, 37° C., percent of maximal response to GIP(1-42)NH2, read-out: hGIPR Emax, % ± SEM
[7] = 0.1% bovine casein and 1.0% human serum albumin, 37° C., read-out: hGCGR EC50, nM (SEM, n)
[8] = cAMP, incubated at 37° C., 0.1% bovine casein (no human serum albumin), read-out: hGCGR EC50, nM (SEM, n)
[9] = HEK293, percent of maximal response to GIP(1-42)NH2, 37° C., 0.1% bovine casein, arithmetic mean, read-out: hGIPR Emax, % ± SEM
[10] = cAMP, incubated at 37° C., 0.1% bovine casein (no human serum albumin)
[11] = 0.1% bovine casein and 1.0% human serum albumin, 37° C.

T2 sequence (P47871 26-477): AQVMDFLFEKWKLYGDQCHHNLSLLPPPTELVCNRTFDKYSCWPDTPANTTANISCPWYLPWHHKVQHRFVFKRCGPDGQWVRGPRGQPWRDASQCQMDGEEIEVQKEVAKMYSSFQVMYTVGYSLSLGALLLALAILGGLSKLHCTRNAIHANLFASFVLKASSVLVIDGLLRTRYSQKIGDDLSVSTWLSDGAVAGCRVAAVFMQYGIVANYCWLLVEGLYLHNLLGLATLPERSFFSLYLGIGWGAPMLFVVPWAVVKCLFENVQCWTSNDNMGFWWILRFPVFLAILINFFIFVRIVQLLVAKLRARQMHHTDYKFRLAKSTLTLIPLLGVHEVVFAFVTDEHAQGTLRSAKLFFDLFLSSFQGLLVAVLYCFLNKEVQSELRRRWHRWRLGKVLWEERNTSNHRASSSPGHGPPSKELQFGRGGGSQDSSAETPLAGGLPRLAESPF
Chain of hGLP-1R (P43220 24-463): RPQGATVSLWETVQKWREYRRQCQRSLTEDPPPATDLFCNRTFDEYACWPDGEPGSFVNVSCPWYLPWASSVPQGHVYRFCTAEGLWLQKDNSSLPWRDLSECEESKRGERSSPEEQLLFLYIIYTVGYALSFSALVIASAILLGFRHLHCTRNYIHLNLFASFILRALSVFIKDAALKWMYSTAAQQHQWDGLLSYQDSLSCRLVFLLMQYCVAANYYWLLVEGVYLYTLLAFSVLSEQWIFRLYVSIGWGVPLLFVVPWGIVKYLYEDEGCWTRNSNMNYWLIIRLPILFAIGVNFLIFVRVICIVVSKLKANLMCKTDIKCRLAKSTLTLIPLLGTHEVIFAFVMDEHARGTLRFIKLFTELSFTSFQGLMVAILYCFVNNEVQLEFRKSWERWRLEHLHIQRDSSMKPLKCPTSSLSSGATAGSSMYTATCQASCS

Row | SMILES | EC50 [1, 4] | Emax ([1]; HEK293, percent of maximal response to GLP-1(7-36)NH2, 37° C., 0.1% bovine casein, arithmetic mean, read-out: hGLP-1R Emax, % ± SEM) | EC50 [1, 5] | Emax [2, 6] | EC50 [3, 7] | EC50 [3, 8] | Emax [2, 9] | EC50 [2, 10] | Emax ([1]; HEK293, 0.1% bovine casein and 1.0% human serum albumin, 37° C., percent of maximal response to GLP-1(7-36)NH2, read-out: hGLP-1R Emax, % ± SEM) | EC50 [2, 11] | Emax ([1]; HEK293, read-out: hGLP-1R Emax, % ± SEM, percent of maximal response to GLP-1(7-36)NH2, 37° C., 0.1% bovine casein, arithmetic mean) | EC50 ([1]; hGLP-1R EC50, nM (SEM, n), cAMP, incubated at 37° C., 0.1% bovine casein (no human serum albumin)) | Emax ([2]; HEK293, read-out: hGIPR Emax, % ± SEM, percent of maximal response to GIP(1-42)NH2, 37° C., 0.1% bovine casein, arithmetic mean) | EC50 ([3]; hGCGR EC50, nM (SEM, n), cAMP, incubated at 37° C., 0.1% bovine casein (no human serum albumin))
1 | CCCCCCCCCCCCCCCC(=O)N[C@@H](CCC(=O)NCCOCCOCC(=O)NCCOCCOCC(=O)NCCCC[C@H](NC(=O)[C@H](CCCN)NC(=O)[C@H](CC(=O)O)NC(=O)[C@H](CC(C)C)NC(=O)[C@](C)(CC(C)C)NC(=O)[C@@H](NC(=O)[C@H](CO)NC(=O)[C@H](Cc1ccncc1)NC(=O)[C@H](CC(=O)O)NC(=O)[C@H](CO)NC(=O)[C@@H](NC(=O)[C@](C)(Cc1ccccc1F)NC(=O)[C@@H](NC(=O)CNC(=O)[C@H](CCC(=O)O)NC(=O)C(C)(C)NC(=O)[C@@H](N)Cc1ccc(O)cc1)[C@@H](C)O)[C@@H](C)O)[C@@H](C)CC)C(=O)N[C@@H](C)C(=O)N[C@@H](CCC(N)=O)C(=O)NC(C)(C)C(=O)N[C@@H](CCC(=O)O)C(=O)N[C@@H](Cc1ccccc1)C(=O)N[C@H](C(=O)N[C@H](CCC(=O)O)C(=O)N[C@@H](CCCCNC(=O)COCCOCCNC(=O)COCCOCCNC(=O)CC[C@H](NC(=O)CCCCCCCCCCCCCCC)C(=O)O)C(=O)N[C@@H](CC(C)C)C(=O)N[C@H](C(=O)N[C@@H](CCC(=O)O)C(=O)NCC(=O)NCC(=O)N1CCC[C@H]1C(=O)N[C@@H](CO)C(=O)N[C@@H](CO)C(=O)NCC(=O)N[C@@H](C)C(=O)N1CCC[C@H]1C(=O)N1CCC[C@H]1C(=O)N1CCC[C@H]1C(=O)N[C@@H](CO)C(N)=O)[C@@H](C)CC)[C@@H](C)CC)C(=O)O [Example 32] | 1.73 nM | 119% | 0.0063 nM | 98.2% | > 9950 nM | > 9950 nM | – | – | – | – | – | – | – | –
2 | CC[C@H](C)[C@H](NC(=O)[C@H](CCCN)NC(=O)[C@H](CC(=O)O)NC(=O)[C@H](CC(C)C)NC(=O)[C@](C)(CC(C)C)NC(=O)[C@@H](NC(=O)[C@H](CO)NC(=O)[C@H](Cc1ccncc1)NC(=O)[C@H](CC(=O)O)NC(=O)[C@H](CO)NC(=O)[C@@H](NC(=O)[C@](C)(Cc1ccccc1F)NC(=O)[C@@H](NC(=O)CNC(=O)[C@H](CCC(=O)O)NC(=O)C(C)(C)NC(=O)[C@@H](N)Cc1ccc(O)cc1)[C@@H](C)O)[C@@H](C)O)[C@@H](C)CC)C(=O)N[C@@H](C)C(=O)N[C@@H](CCC(N)=O)C(=O)NC(C)(C)C(=O)N[C@@H](CCC(=O)O)C(=O)N[C@@H](Cc1ccccc1)C(=O)N[C@H](C(=O)N[C@@H](CCCCNC(=O)COCCOCCNC(=O)COCCOCCNC(=O)CCCCCCCCCCCCC(=O)O)C(=O)N[C@@](C)(Cc1ccc(O)cc1)C(=O)N[C@@H](CC(C)C)C(=O)N[C@H](C(=O)N[C@@H](CCC(=O)O)C(=O)NCC(=O)NCC(=O)N[C@@H](CCCCNC(=O)COCCOCCNC(=O)COCCOCCNC(=O)CCCCCCCCCCCCC(=O)O)C(=O)N[C@@H](CO)C(=O)N[C@@H](CO)C(=O)NCC(=O)N[C@@H](C)C(=O)N1CCC[C@H]1C(=O)N1CCC[C@H]1C(=O)N1CCC[C@H]1C(=O)N[C@@H](CO)C(N)=O)[C@@H](C)CC)[C@@H](C)CC [Example 193] | 24.3 nM | – | 0.382 nM | 92.2 ± 0.24% | > 9950 nM | > 9950 nM | 97.2 ± 4.63% | 0.0201 nM | – | – | – | – | – | –
3 | CC[C@H](C)[C@H](NC(=O)[C@H](CCCN)NC(=O)[C@H](CC(=O)O)NC(=O)[C@H](CC(C)C)NC(=O)[C@](C)(CC(C)C)NC(=O)[C@@H](NC(=O)[C@H](CO)NC(=O)[C@H](Cc1ccncc1)NC(=O)[C@H](CC(=O)O)NC(=O)[C@H](CO)NC(=O)[C@@H](NC(=O)[C@](C)(Cc1ccccc1F)NC(=O)[C@@H](NC(=O)CNC(=O)[C@H](CCC(=O)O)NC(=O)C(C)(C)NC(=O)[C@@H](N)Cc1ccc(O)cc1)[C@@H](C)O)[C@@H](C)O)[C@@H](C)CC)C(=O)N[C@@H](C)C(=O)N[C@@H](CCC(N)=O)C(=O)NC(C)(C)C(=O)N[C@@H](CCCCNC(=O)COCCOCCNC(=O)COCCOCCNC(=O)CC[C@H](NC(=O)CCCCCCCCCCCCC(=O)O)C(=O)O)C(=O)N[C@@H](Cc1ccccc1)C(=O)N[C@H](C(=O)N[C@H](CCC(=O)O)C(=O)N[C@@](C)(Cc1ccc(O)cc1)C(=O)N[C@@H](CC(C)C)C(=O)N[C@H](C(=O)N[C@@H](CCC(=O)O)C(=O)NCC(=O)NCC(=O)N1CCC[C@H]1C(=O)N[C@@H](CO)C(=O)N[C@@H](CO)C(=O)NCC(=O)N[C@@H](C)C(=O)N1CCC[C@H]1C(=O)N1CCC[C@H]1C(=O)N1CCC[C@H]1C(=O)N[C@@H](CO)C(=O)N[C@@H](CCCCNC(=O)COCCOCCNC(=O)COCCOCCNC(=O)CC[C@H](NC(=O)CCCCCCCCCCCCC(=O)O)C(=O)O)C(N)=O)[C@@H](C)CC)[C@@H](C)CC [Example 75] | 41.3 nM | – | 0.411 nM | 87.8 ± 3.33% | > 9950 nM | > 9950 nM | 92.3 ± 0.78% | 0.0182 nM | 97 ± 8.3% | 2.18 nM | – | – | – | –
4 | CC[C@H](C)[C@H](NC(=O)[C@H](CC(C)C)NC(=O)[C@](C)(Cc1ccccc1)NC(=O)[C@H](CCCCNC(=O)COCCOCCNC(=O)COCCOCCNC(=O)CC[C@H](NC(=O)CCCCCCCCCCCCC(=O)O)C(=O)O)NC(=O)[C@@H](NC(=O)[C@](C)(Cc1ccccc1)NC(=O)[C@H](CCC(=O)O)NC(=O)C(C)(C)NC(=O)[C@H](CCC(N)=O)NC(=O)[C@H](C)NC(=O)[C@H](CCCCNC(=O)COCCOCCNC(=O)COCCOCCNC(=O)CC[C@H](NC(=O)CCCCCCCCCCCCC(=O)O)C(=O)O)NC(=O)[C@H](CCCN)NC(=O)[C@H](CC(=O)O)NC(=O)[C@H](CC(C)C)NC(=O)[C@](C)(CC(C)C)NC(=O)[C@@H](NC(=O)C(C)(C)NC(=O)[C@@H](NC(=O)[C@H](CC(=O)O)NC(=O)[C@H](CO)NC(=O)[C@@H](NC(=O)[C@](C)(Cc1ccccc1F)NC(=O)[C@@H](NC(=O)CNC(=O)[C@H](CCC(=O)O)NC(=O)C(C)(C)NC(=O)[C@@H](N)Cc1ccc(O)cc1)[C@@H](C)O)[C@@H](C)O)C(C)C)[C@@H](C)CC)[C@@H](C)CC)C(=O)N[C@@H](CCC(=O)O)C(=O)NCC(=O)NCC(=O)N1CCC[C@H]1C(=O)N[C@@H](CO)C(=O)N[C@@H](CO)C(=O)NCC(=O)N[C@@H](C)C(=O)N1CCC[C@H]1C(=O)N1CCC[C@H]1C(=O)N1CCC[C@H]1C(=O)N[C@@H](CO)C(N)=O [Example 123] | – | – | – | – | – | – | – | – | – | – | 96.3% | 0.508 nM | 94.9% | > 9950 nM
5 | CC[C@H](C)[C@H](NC(=O)[C@H](CC(C)C)NC(=O)[C@](C)(Cc1ccc(O)cc1)NC(=O)[C@@H](CCC(=O)O)NC(=O)[C@@H](NC(=O)[C@H](Cc1ccccc1)NC(=O)[C@H](CCC(=O)O)NC(=O)C(C)(C)NC(=O)[C@H](CCC(N)=O)NC(=O)[C@H](C)NC(=O)[C@H](CCCCNC(=O)COCCOCCNC(=O)CC[C@H](NC(=O)CCCCCCCCCCCCC(=O)O)C(=O)O)NC(=O)[C@H](CCCN)NC(=O)[C@H](CC(=O)O)NC(=O)[C@H](CC(C)C)NC(=O)[C@](C)(CC(C)C)NC(=O)[C@@H](NC(=O)[C@H](CO)NC(=O)[C@H](Cc1ccncc1)NC(=O)[C@H](CC(=O)O)NC(=O)[C@H](CO)NC(=O)[C@@H](NC(=O)[C@](C)(Cc1ccccc1F)NC(=O)[C@@H](NC(=O)CNC(=O)[C@H](CCC(=O)O)NC(=O)C(C)(C)NC(=O)[C@@H](N)Cc1ccc(O)cc1)[C@@H](C)O)[C@@H](C)O)[C@@H](C)CC)[C@@H](C)CC)C(=O)N[C@@H](CCC(=O)O)C(=O)NCC(=O)NCC(=O)N[C@@H](CCCCNC(=O)COCCOCCNC(=O)CC[C@H](NC(=O)CCCCCCCCCCCCC(=O)O)C(=O)O)C(=O)N[C@@H](CO)C(=O)N[C@@H](CO)C(=O)NCC(=O)N[C@@H](C)C(=O)N1CCC[C@H]1C(=O)N1CCC[C@H]1C(=O)N1CCC[C@H]1C(=O)N[C@@H](CO)C(N)=O [Example 11] | 34.5 nM | – | – | 90 ± 2.71% | > 9950 nM | > 9950 nM | 97.7 ± 2.82% | 0.0135 nM | – | 1.22 nM | – | – | – | –
